From patent US9145376B2, “Quinazolinone inhibitors of dynein” (The Rockefeller University, priority 2011, dated 2015)

How the values were obtained:
[1] = test system: primary cilia of Shh-EGFP cells; assay: Quantitative assessment of ciliogenesis (Arl13b staining, cilia size); type: cell-based; settings: 24 hours, read-out: Primary cilia size (percent of DMSO control at a 30 μM dose)
Experimental: Shh-EGFP cells [J. Hyman et al., Proc. Natl. Acad. Sci. U.S.A., (2009)], an NIH-3T3-based cell line containing a stably integrated Gli-responsive enhanced green fluorescent protein reporter, were maintained in DMEM containing 10% calf serum, 100 U/mL penicillin, and 0.1 mg/mL streptomycin. The cells were seeded into 24-well plates containing poly-D-lysine-coated 12-mm glass coverslips at a density of 30,000 cells/well and cultured for 36 hours. The cells were transferred into DMEM containing 0.5% calf serum, the antibiotics described above, and either individual compounds at a 30 μM concentration or 0.3% DMSO. After being cultured for another 24 hours, the cells were fixed in PBS containing 4% paraformaldehyde for 10 minutes at room temperature, washed 3×5 minutes with PBS, permeabilized with PBS containing 0.3% Triton X-100 for 5 minutes, and blocked overnight at 4° C. with PBS containing 5% normal goat serum, 0.1% Triton X-100, and 0.05% sodium azide. The coverslips were then incubated for 90 minutes at room temperature with blocking buffer containing rabbit polyclonal anti-Arl 13b antibody (1:3000 dilution), washed 4×5 minutes with PBS containing 0.1% Triton X-100, and incubated for 60 minutes with blocking buffer containing Alexa Fluor 488-conjugated goat polyclonal anti-rabbit IgG antibody (1:300 dilution; Invitrogen, A-11034). Following this secondary antibody incubation, nuclei were stained by incubating the cells 2×10 minutes with PBS containing 0.1% Triton X-100 and […] 4′,6-diamidino-2-phenylindole (DAPI) and washing them 2×5 minutes with PBS. The coverslips were subsequently mounted onto slides using Prolong Gold Antifade Reagent (Invitrogen) and imaged using an HC Plan Apochromat CS 20×/0.70 NA oil immersion objective on a Leica DMI6000B compound microscope equipped with a Photometric CoolSNAP HQ CCD camera and Metamorph software (Molecular Devices). Images of Arl13b staining in DMSO-treated cells were manually examined to establish a minimum threshold value for cilia staining intensity. ImageJ software was then used to define objects consisting of two or more adjacent pixels with a signal intensity equal to or greater than this threshold value, and the total object area within an individual image was used to estimate the total pixel area of primary cilia. Corresponding images of DAPI staining were processed in parallel using CellProfiler software to establish the number of nuclei per image. The average cilia size per cell within an individual image was then determined by dividing the total ciliary pixel area by the number of nuclei. Ten individual images, each containing approximately 150 cells. were used to quantify the average cilia size for each experimental condition.
Shh-EGFP cells, an NIH-3T3-based cell line containing a stably integrated Gli-responsive enhanced green fluorescent protein reporter, were maintained in DMEM containing 10% (v/v) calf serum, 100 U/mL penicillin, and 0.1 mg/mL streptomycin. The cells were seeded into 24-well plates containing poly-D-lysine-coated 12-mm glass coverslips at a density of 30,000 cells/well and cultured for 36 hours. The cells were transferred into DMEM containing 0.5% (v/v) calf serum, the antibiotics described above, and either individual dihydroquinazolinones at a 30 μM concentration or an equivalent amount of DMSO vehicle (0.3%, v/v). After being cultured for another 24 hours, the cells were fixed in PBS containing 4% (w/v) paraformaldehyde for 10 min at room temperature, washed 3×5 min with PBS, permeabilized with PBS containing 0.3% (v/v) Triton X-100 for 5 min, and blocked overnight at 4° C. with PBS containing 5% (v/v) normal goat serum, 0.1% (v/v) Triton X-100, and 0.05% (w/v) sodium azide. […]

[2] = biological target: T1, cytoplasmic dynein purified from bovine brain (Bos taurus, UniProt A0A3Q1NEU9); assay: Microtubule surface gliding assay, dynein; type: biochemical; settings: for dynein-dependent microtubule movement (gliding velocity): 100 μM; for IC50: dynein-dependent microtubule gliding in vitro, read-out: IC50 of microtubule gliding inhibition
T1 construct: Cytoplasmic dynein was purified from bovine brain tissue; from tissue; host or cells: bovine brain
Experimental: To more directly examine whether cytoplasmic dynein is the direct target of the ciliobrevins, we evaluated their effects on dynein-dependent microtubule gliding in vitro. Cytoplasmic dynein was purified from bovine brain tissue, adsorbed onto glass slides, and then incubated with fluorescently labeled microtubules and ATP in the presence or absence of these compounds. We then imaged and quantified the resulting microtubule gliding velocities by epifluorescence microscopy.
Cytoplasmic dynein was purified from bovine brains as described by Bingham et al. [Methods Enzymol. 298, 171 (1998)]. K560, a 560-amino acid N-terminal fragment of human conventional kinesin (kinesin-1) with a C-terminal His-tag, was expressed in bacteria and purified as described by Woehlke et al., [Cell 90, 207 (1997)]. Motility assays were performed on a Zeiss Axiovert 200M wide-field microscope equipped with a Zeiss 100×/1.45 NA α-Plan-Fluar objective. Data were captured with an EM-CCD camera (iXon DU-897, Andor Technology) with a 0.3-second exposure time and frame rate of 0.5 second^−1. Microtubule gliding assays were performed as described by Kapoor and Mitchison [Proc. Natl. Acad. Sci. U.S.A. 96, 9106 (1999)] with some modifications. An approximately 6 μL flow chamber was filled with motor protein (100 μg/mL dynein or 50 μg/mL K560) in motor dilution buffer (80 mM Pipes, 1 mM EGTA, 2 mM MgCl2, 2 mM DTT, 50 μM ATP, pH 6.8 with KOH). After a 2-minute incubation, excess protein was washed out with […] of PEM80 buffer (80 mM Pipes, 1 mM EGTA, 2 mM MgCl2, pH 6.8 with KOH) and the surface was blocked against non-specific microtubule binding by filling the chamber with blocking protein (0.5 mg/mL α-casein for dynein experiments and 1 mg/mL BSA for K560 experiments) in motor dilution buffer. After 2 minutes the chamber was perfused with 18 μL of reaction mix (PEM80, 40 mM KCl, blocking protein [1 mg/mL a-casein for dynein experiments; 1 mg/mL BSA for K560 experiments], 2 mM MgATP, 20 μM taxol, 0.1 μM rhodamine-labeled microtubules, oxygen depletion system [4 mM DTT, 2 mM glucose, 40 μg/mL glucose oxidase, 35 μg/mL catalase], 2.5% DMSO, and test compounds as appropriate). The flow chamber was then sealed with valap. After allowing the microtubules to bind to the surface for 5 minutes, the gliding microtubules were visualized by time-lapse fluorescence microscopy. Velocities were measured by kymography using Metamorph software (Molecular Devices), and the velocity for each microtubule was determined from the total distance during the time observed.
For washout experiments, the chamber was left unsealed after the initial reaction mix containing inhibitor was added. Microtubules were allowed to bind to the surface for 5 minutes, and then a time-lapse movie was acquired. The inhibitor was then washed out of the chamber by flowing in 20 μL of fresh reaction mix (PEM80, 40 mM KCl, 1 mg/mL α-casein, 2 mM MgATP, 20 μM taxol, oxygen depletion system, and 2.5% DMSO) without additional microtubules or inhibitor. The chamber was sealed, and additional time-lapse movies were acquired.

T1 sequence (A0A3Q1NEU9 1-4657): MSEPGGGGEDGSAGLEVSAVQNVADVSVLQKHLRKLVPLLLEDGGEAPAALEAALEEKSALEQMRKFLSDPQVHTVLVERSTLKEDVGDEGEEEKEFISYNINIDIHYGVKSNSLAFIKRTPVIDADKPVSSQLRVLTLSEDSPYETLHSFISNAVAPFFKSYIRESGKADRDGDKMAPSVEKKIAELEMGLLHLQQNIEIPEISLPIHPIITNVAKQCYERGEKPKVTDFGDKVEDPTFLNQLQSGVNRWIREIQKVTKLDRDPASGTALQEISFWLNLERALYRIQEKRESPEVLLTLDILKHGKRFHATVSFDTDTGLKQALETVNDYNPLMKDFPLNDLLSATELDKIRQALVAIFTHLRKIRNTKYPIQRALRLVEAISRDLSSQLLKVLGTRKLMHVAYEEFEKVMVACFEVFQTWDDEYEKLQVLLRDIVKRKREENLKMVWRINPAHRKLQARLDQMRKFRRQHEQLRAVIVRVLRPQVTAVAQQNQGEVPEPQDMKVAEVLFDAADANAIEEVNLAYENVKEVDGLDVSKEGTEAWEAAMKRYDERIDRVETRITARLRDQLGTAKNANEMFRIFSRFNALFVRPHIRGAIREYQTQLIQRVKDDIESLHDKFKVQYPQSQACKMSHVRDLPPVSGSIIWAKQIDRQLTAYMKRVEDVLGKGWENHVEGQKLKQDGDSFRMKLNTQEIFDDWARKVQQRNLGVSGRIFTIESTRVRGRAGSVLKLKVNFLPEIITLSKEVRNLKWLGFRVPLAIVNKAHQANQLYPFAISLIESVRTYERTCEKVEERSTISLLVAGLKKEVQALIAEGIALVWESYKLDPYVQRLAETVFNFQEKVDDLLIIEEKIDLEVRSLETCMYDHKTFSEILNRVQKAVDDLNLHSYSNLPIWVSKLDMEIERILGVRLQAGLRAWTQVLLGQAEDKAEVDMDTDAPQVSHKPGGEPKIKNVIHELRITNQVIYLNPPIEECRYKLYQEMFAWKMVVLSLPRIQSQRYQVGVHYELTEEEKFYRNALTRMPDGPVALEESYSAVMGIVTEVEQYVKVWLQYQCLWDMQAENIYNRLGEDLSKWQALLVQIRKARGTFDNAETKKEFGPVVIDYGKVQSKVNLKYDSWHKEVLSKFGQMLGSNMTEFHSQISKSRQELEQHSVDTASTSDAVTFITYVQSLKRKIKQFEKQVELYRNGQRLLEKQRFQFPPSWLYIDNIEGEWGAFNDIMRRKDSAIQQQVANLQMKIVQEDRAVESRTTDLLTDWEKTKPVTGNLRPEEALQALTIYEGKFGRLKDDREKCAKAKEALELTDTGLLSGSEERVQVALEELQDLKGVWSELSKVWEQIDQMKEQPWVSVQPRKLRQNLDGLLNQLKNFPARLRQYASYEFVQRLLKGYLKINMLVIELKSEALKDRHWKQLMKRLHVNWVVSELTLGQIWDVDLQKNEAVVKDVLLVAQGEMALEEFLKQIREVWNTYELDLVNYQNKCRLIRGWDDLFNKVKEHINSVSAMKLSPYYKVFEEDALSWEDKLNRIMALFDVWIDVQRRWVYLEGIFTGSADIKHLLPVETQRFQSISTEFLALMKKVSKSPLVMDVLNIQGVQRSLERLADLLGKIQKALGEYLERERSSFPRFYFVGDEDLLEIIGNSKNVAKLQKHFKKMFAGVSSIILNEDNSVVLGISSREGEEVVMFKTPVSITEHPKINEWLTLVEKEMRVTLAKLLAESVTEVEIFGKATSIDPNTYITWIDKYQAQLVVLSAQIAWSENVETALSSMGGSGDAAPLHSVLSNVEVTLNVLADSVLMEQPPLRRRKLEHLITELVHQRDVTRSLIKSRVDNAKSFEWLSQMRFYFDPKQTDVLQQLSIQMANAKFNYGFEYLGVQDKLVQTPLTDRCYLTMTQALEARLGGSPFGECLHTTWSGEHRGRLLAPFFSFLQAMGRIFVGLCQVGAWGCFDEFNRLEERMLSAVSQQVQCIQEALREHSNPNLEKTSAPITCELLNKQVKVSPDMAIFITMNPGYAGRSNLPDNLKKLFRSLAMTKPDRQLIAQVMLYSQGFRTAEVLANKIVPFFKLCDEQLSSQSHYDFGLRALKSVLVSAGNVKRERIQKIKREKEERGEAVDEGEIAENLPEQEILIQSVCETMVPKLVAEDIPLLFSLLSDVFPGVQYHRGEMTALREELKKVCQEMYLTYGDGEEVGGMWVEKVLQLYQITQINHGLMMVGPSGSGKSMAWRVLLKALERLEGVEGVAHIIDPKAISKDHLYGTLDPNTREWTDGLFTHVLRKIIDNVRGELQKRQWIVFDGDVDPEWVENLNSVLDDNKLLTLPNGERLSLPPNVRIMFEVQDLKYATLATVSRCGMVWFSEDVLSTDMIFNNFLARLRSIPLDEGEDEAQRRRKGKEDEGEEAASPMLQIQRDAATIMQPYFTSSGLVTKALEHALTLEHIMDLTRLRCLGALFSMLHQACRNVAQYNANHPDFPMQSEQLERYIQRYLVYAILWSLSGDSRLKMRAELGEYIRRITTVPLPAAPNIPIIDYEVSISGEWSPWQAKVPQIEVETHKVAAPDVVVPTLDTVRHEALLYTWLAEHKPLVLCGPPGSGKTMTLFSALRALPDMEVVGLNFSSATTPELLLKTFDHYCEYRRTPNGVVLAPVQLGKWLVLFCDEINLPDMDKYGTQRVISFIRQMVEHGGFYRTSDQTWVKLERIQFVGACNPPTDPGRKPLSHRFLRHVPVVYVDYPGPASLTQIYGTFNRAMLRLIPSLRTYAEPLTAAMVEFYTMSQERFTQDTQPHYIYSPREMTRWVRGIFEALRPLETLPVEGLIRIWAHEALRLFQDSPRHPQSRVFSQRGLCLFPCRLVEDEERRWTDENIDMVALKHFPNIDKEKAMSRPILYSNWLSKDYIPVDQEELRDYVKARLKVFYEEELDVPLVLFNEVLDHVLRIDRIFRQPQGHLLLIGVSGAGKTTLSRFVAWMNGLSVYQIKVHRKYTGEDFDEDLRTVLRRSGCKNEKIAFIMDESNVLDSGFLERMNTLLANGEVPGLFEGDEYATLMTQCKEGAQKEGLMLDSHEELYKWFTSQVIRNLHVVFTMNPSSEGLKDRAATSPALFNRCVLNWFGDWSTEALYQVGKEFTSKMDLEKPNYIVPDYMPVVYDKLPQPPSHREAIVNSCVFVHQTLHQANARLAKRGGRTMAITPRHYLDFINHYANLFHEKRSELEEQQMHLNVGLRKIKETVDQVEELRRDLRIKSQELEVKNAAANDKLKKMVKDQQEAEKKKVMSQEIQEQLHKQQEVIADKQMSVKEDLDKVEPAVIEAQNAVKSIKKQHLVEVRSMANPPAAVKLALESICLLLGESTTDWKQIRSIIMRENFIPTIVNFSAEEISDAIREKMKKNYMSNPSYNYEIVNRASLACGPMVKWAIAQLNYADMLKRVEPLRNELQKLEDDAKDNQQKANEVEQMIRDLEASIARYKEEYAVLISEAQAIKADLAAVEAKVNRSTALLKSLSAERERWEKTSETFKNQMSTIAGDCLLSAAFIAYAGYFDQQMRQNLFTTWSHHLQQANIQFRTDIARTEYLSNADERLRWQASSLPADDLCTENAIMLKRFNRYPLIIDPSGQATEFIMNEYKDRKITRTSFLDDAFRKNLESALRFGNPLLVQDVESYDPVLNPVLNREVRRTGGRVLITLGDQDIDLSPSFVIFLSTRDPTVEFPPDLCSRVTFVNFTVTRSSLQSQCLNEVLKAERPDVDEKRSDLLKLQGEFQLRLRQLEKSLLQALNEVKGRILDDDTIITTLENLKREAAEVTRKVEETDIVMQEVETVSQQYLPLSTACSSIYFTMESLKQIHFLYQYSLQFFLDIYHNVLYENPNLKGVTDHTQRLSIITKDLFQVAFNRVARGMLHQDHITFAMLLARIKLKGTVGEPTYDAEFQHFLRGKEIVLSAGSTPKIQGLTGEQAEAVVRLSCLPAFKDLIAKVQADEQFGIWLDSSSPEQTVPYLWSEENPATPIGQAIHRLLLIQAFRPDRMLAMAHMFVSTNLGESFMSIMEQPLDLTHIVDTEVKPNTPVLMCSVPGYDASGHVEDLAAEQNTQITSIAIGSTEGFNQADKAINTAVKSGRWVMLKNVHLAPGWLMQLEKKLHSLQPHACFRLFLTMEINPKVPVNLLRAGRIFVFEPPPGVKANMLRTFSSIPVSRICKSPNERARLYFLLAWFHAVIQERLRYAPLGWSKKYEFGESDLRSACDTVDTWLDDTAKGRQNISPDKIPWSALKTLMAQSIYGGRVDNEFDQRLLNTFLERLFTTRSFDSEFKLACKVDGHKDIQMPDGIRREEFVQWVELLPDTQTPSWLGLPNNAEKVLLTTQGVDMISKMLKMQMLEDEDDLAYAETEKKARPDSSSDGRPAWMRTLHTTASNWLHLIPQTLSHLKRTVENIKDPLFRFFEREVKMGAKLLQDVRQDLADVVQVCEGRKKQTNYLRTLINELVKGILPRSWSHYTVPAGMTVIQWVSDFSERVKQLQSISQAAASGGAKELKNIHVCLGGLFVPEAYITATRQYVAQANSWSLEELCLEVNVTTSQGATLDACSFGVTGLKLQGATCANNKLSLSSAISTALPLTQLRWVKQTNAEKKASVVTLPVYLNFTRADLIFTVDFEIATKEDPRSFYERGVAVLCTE

SMILES: N#C/C(C(=O)c1ccccc1)=C1\NC(=O)c2ccccc2N1 [Example 16, 3-oxo-2-(4-oxo-3,4-dihydroquinazolin-2(1H)-ylidene)-3-phenylpropanenitrile]
- activity at 30 µM [1]: 95%
- dynein-dependent microtubule movement (gliding velocity) [2]: minimal effects

SMILES: N#C/C(C(=O)c1ccc(Cl)cc1)=C1\NC(=O)c2ccccc2N1 [Example 2, 3-(4-chlorophenyl)-3-oxo-2-(4-oxo-3,4-dihydroquinazolin-2(1H)-ylidene)propanenitrile]
- activity at 30 µM [1]: 74%
- dynein-dependent microtubule movement (gliding velocity) [2]: minimal effects

SMILES: N#C/C(C(=O)c1ccc(Cl)cc1Cl)=C1\NC(=O)c2ccc(Cl)cc2N1 [Example 31, 2-(7-chloro-4-oxo-3,4-dihydroquinazolin-2(1H)-ylidene)-3-(2,4-dichlorophenyl)-3-oxo-propanenitrile]
- activity at 30 µM [1]: 7%
- dynein-dependent microtubule movement (gliding velocity) [2]: at least five-fold
- IC50 [2]: 40 µM

SMILES: N#C/C(C(=O)c1ccc(Cl)cc1Cl)=C1\NC(=O)c2ccccc2N1 [Example 1, 3-(2,4-dichlorophenyl)-3-oxo-2-(4-oxo-3,4-dihydroquinazolin-2(1H)-ylidene)propanenitrile]
- activity at 30 µM [1]: 27%
- dynein-dependent microtubule movement (gliding velocity) [2]: at least five-fold
- IC50 [2]: 30 µM
